Data from US9439845B2, “Glycyrrhetinimidyl hydroxyproline alkyl esters and protected derivatives thereof” (REVLON CONSUMER PRODUCTS CORPORATION, priority 2013, dated 2016).

Columns and labels:
Type in all cases: cell-based
[1] = test system: collagen III in normal human dermal fibroblasts (NHDF); experiment: Total Collagen III expression in fibroblasts (immunofluorescence, INCell Analyzer 1000); conditions: for % Control (total Collagen III) / % Stimulation (total Collagen III) / Mean Collagen III (AU): 72 hours
Protocol: (§1) It is believed that the glycyrrhetinimidyl hydroxyproline alkyl esters of the present invention are useful for promoting collagen production in human skin. In an exemplary test, normal human dermal fibroblasts (NHDF) were cultured in culture medium for 24 hours. The medium was then replaced with culture medium containing or not (control) the test compound or the reference compound (Vitamin C) or the reference mix (Vitamin C and TGF-β). The cells were then incubated for 72 hours. After incubation, the culture medium was then collected and the cells were washed and fixed. Cells were then labeled with a primary antibody (anti-collagen I or anti-collagen III). […] An INCell Analyzer 1000 was used to take images of each well. The labeling was quantified by the measurement of the fluorescence intensity or fluorescence area normalized to the total number of cells.

[2] = test system: extracellular collagen III in normal human dermal fibroblasts (NHDF); experiment: Extracellular Collagen III expression in fibroblasts (fiber deposition); conditions: for % Control (extracellular Collagen III) / % Stimulation (extracellular Collagen III) / Mean Collagen III (fibers): 72 hours
Protocol: as §1
(§2) A collagen release promoter, such as Vitamin C, could be used to release the intracellular collagen into the extracellular matrix. Note that in Tables 3 and 4 below, the apparent inhibition of glycyrrhetinimidyl hydroxyproline methyl ester on extracellular collagen fiber deposition is due to an artifact effect.

[3] = test system: collagen I in normal human dermal fibroblasts (NHDF); experiment: Total Collagen I expression in fibroblasts (immunofluorescence, INCell Analyzer 1000); conditions: for % Control (total Collagen I) / % Stimulation (total Collagen I) / Mean Collagen I (AU): 72 hours; for Mean Collagen I (AU): AU = fluorescence intensity/number of cells
Protocol: as §1

[4] = test system: extracellular collagen I in normal human dermal fibroblasts (NHDF); experiment: Extracellular Collagen I expression in fibroblasts (fiber deposition); conditions: for % Control (extracellular Collagen I) / % Stimulation (extracellular Collagen I) / Mean Collagen I (fibers): 72 hours
Protocol: as §1, §2

[5] = 30 μM, apparent inhibition said to be an artifact
[6] = qualitative analysis of the images
[7] = 10 μM, apparent inhibition said to be an artifact

In the case of “glycyrrhetinimidyl hydroxyproline methyl ester”, the “% Control (total Collagen III)” value ([1]; 3.3 μM) is reported as 105%, the “% Stimulation (total Collagen III)” value ([1]; 3.3 μM) is reported as 5% and the “Mean Collagen III (AU)” value ([1]; 3.3 μM) is reported as 177399 AU. The “% Control (total Collagen III)” value ([1]; 10 μM) was 118%, the “% Stimulation (total Collagen III)” value ([1]; 10 μM) was 18% and the “Mean Collagen III (AU)” value ([1]; 10 μM) was 199984 AU. The “% Control (total Collagen III)” value ([1]; 30 μM) was 142%, the “% Stimulation (total Collagen III)” value ([1]; 30 μM) was 42% and the “Mean Collagen III (AU)” value ([1]; 30 μM) was 240374 AU. For the same substance, the “increase of the NHDF's neosynthesis of collagen III” value ([1]; maximum over tested concentrations (text summary of Table 2)) was “up to 42%”, the “% Control (extracellular Collagen III)” value ([2]; 3.3 μM) was 105% and the “% Stimulation (extracellular Collagen III)” value ([2]; 3.3 μM) was 5%. For the same substance, the “Mean Collagen III (fibers)” value ([2]; 3.3 μM) was 34 fibers, the “% Control (extracellular Collagen III)” value ([2]; 10 μM) was 107% and the “% Stimulation (extracellular Collagen III)” value ([2]; 10 μM) was 7%. For the same substance, the “Mean Collagen III (fibers)” value ([2]; 10 μM) was 34 fibers, the “% Control (extracellular Collagen III)” value [2, 5] was 78% and the “% Stimulation (extracellular Collagen III)” value [2, 5] was −22%. The “Mean Collagen III (fibers)” value [2, 5] was 25 fibers, the “effect on collagen III extracellular fiber deposition” value [2, 6] was “no significant effect” and the “extracellular release of collagen III” value ([2]; text summary of Table 4) was “no significant increase”. For the same substance, the “% Control (total Collagen I)” value ([3]; 3.3 μM) was 102%, the “% Stimulation (total Collagen I)” value ([3]; 3.3 μM) was 2% and the “Mean Collagen I (AU)” value ([3]; 3.3 μM) was 222721 AU. For the same substance, the “% Control (total Collagen I)” value ([3]; 10 μM) was 97%, the “% Stimulation (total Collagen I)” value ([3]; 10 μM) was −3% and the “Mean Collagen I (AU)” value ([3]; 10 μM) was 210888 AU. For the same substance, the “% Control (total Collagen I)” value ([3]; 30 μM) was 126%, the “% Stimulation (total Collagen I)” value ([3]; 30 μM) was 26% and the “Mean Collagen I (AU)” value ([3]; 30 μM) was 274297 AU. The “increase of the NHDF's neosynthesis of collagen I” value ([3]; maximum over tested concentrations (text summary of Table 1)) was “up to 26%”, the “% Control (extracellular Collagen I)” value ([4]; 3.3 μM) was 102% and the “% Stimulation (extracellular Collagen I)” value ([4]; 3.3 μM) was 2%. The “Mean Collagen I (fibers)” value ([4]; 3.3 μM) was 63 fibers, the “% Control (extracellular Collagen I)” value [4, 7] was 79% and the “% Stimulation (extracellular Collagen I)” value [4, 7] was −21%. For the same substance, the “Mean Collagen I (fibers)” value [4, 7] was 48 fibers, the “% Control (extracellular Collagen I)” value [4, 5] was 70% and the “% Stimulation (extracellular Collagen I)” value [4, 5] was −30%. For the same substance, the “Mean Collagen I (fibers)” value [4, 5] was 43 fibers, the “effect on collagen I extracellular fiber deposition” value [4, 6] was “no significant effect” and the “extracellular release of collagen I” value ([4]; summary of Table 3) was “no significant increase”.
